Reference: patent EP0500785B1, “A HUMAN T CELL REACTIVE FELINE PROTEIN (TRFP) ISOLATED FROM HOUSE DUST AND USES THEREFOR” (IMMULOGIC PHARMACEUTICAL CORPORATION, priority 1989, dated 2002)

What was measured:
Assay type in all cases: cell-based, human
[1] = test system: TRFP primed T cell cultures; experiment: T cell proliferation assay (tritiated thymidine incorporation) of TRFP-primed T cells restimulated with allergens or peptides; details: for T cell stimulatory activity: summarising Tables 2 and 3
Description: Peripheral blood mononuclear cells (PBMC) were purified from 60 ml of heparinized blood from cat allergic patients. PBMC were subsequently treated as described below, although in individual cases, the length of time of cultivation with IL-2 and/or IL-4 and the specific peptides used for stimulation varied.
10 ml of PBMC from patient 131 at 10^6/ml were cultured at 37°C for 7 days in the presence of 5 micrograms purified TRFP/ml RPMI-1640 supplemented with 5% pooled human AB serum. Viable cells were purified by Ficoll-Hypaque centrifugation and cultured for three weeks at 5 units recombinant human IL-2/ml and 5 units recombinant human IL-4/ml. The resting T cells were then restimulated (secondary) with 5 micrograms TRFP at 2 x 10^5/ml in the presence of irradiated (3500 Rads) autologous PBMC at a concentration of 5 x 10^5/ml for three days, purified by Ficoll-Hypaque centrifugation and grown in 5 units IL-2 and 5 units IL-4/ml for two weeks. For assay, 2 x 10^4 resting secondary T cells were restimulated (tertiary) in the presence of 5 x 10^4 irradiated (3500 Rads) autologous PBMC or 2 x 10^4 transformed B cells (20,000 Rads) with various concentrations of allergens or their fragments in a volume of 200 microliters in a 96-well round bottom assay plates for 3 days. Each well then received 1 microCurie tritiated (methyl) thymidine for 16 hours. The counts incorporated were collected onto glass fiber filters and processed for liquid scintillation counting.
Antigens used: T cell reactive feline protein (TRFP), Hollister-Stier cat epithelium skin test reagent (CST), IPC ragweed pollen extract (pollen), and synthetic peptides derived from the TRFP protein sequence (See Figures 6 and 7). Significant T cell proliferation is generally regarded as greater than 2.5 times the media control (T cells and antigen presenting cells alone).
Alternatively, PBMC were treated as follows: the primary stimulated cells were cultured in IL-2/IL-4 for two weeks. The resting T cells derived from this culture were tested in a secondary assay with some, but not all, of the above allergens. […] This type of epitope analysis has allowed the definition of T cell epitopes present in TRFP.

[2] = test system: Peripheral blood mononuclear cells (PBMC); experiment: Cytokine profiles (IL-2, IFN-γ, IL-4 cDNA) by PCR in a primary 36 hour PBMC culture; design: key to STIMULATION INDEX IL-2 / STIMULATION INDEX IFN-γ / STIMULATION INDEX IL-4: fold over medium control; undetectable control set to 1.00; details: Patient 409 primary 36 hour culture; for STIMULATION INDEX IL-2 / STIMULATION INDEX IFN-γ / STIMULATION INDEX IL-4: 20 micrograms TRFP/ml or 50 micrograms peptide/ml; for STIMULATION INDEX IL-2: medium not detectable, lowest measurable response set at 1.00; for STIMULATION INDEX IFN-γ / STIMULATION INDEX IL-4: relative to medium control; for RATIO IFN/IL-4 / RATIO IL-2/IL-4: ratio of stimulation indices
Description: Peripheral blood mononuclear cells (PBMC) were purified from cat-allergic patients as described in Example 5. Five x 10^6 PBMC were cultured at 2 x 10^6/ml for 36 hours in the presence of medium only, 20 micrograms purified TRFP/ml or 50 micrograms peptide/ml. The cells were then washed two times with phosphate buffered saline (PBS, pH 7.2) and lysed with 2 ml […] guanidinium isothiocyanate, 0.5% Sarkosyl, 5 mM sodium citrate, 0.1 M 2-mercaptoethanol, pH 7.0. The lysate was then forced through a 26 gauge needle to shear genomic DNA, and was layered onto a 2 ml cushion of 5.7 M CsCl, 0.01 M EDTA, pH 7.5 in diethylpyrocarbonate (DEPC)-treated water. The lysate was centrifuged at 35,000 RPM in a Beckman SW41 rotor for 18 hours at 20°C. The RNA pellet was resuspended in 0.4 ml TE (10 mM Tris, 1 mM EDTA) pH 7.5, 0.1% SDS, and then extracted three times with 0.5 ml phenol/0.2 ml chloroform. The RNA was then precipitated on dry ice with 2.5 volumes ice-cold ethanol, 1/10 volume 3 M sodium acetate, pH 5.2 in DEPC-treated water, rinsed once with 70% ethanol in DEPC-treated water, and dried. The RNA pellet was resuspended in 2 microliters TE, pH 7.5 in DEPC-treated water.
Total cellular RNA was converted to cDNA using the Superscript kit (BRL, Bethesda, MD). Two microliters of RNA were added to one microliter oligo (dT)12-18 (500 micrograms/ml) and 9 microliters water. The sample was heated to 70°C for 10 minutes and ice quenched. Four microliters 5X buffer were added to the sample along with 2 microliters 0.1 M DTT and 1 microliter dNTP mix (10 mM each, dATP, dCTP, dGTP, dTTP). One microliter reverse transcriptase (200U) was added and the reaction was carried out for one hour at 42°C. The reaction was terminated by incubation of the sample at 90°C for five minutes and stored at -80°C.
Ten-fold serial dilutions of T cell cDNA in 10 mM TRIS, pH 7.5 were amplified using the standard kit and protocol recommended by Perkin Elmer-Cetus (Redwood City, CA). Each sample received 26.65 microliters water, 5 microliters 10X PCR buffer, 8 microliters of dNTP mix (1.25 mM each of dATP, dCTP, dGTP and dTTP), 0.1 microliter alpha ^32P-dCTP (3000 Ci/mmol), 0.25 microliter AmpliTaq, 5 microliters cDNA and 5 microliters cytokine-specific 5' and 3' primers (20 micromolar). The primers used for most cytokines and the beta-actin control were purchased from Clontech (Redwood City, CA). The human IL-4 primers were purchased from Research Genetics (Huntsville, AL) and had the following sequences: [formula]
The reactions were carried out after overlaying each sample with one drop of mineral oil, with the following program in a programmable thermal cycler (MJ Research, Cambridge, MA).
The PCR products were extracted once with 25 microliters chloroform and 25 microliters of each sample were then electrophoresed on an 8% polyacrylamide gel at 250 V. The gel was dried and exposed to pre-flashed x-ray film. Several exposures of each gel were then scanned using a Shimadzu flying spot laser densitometer. Values on the linear portion of the titrations were then compared to the medium control values to obtain a stimulation index for each sample. Primers for beta-actin were included as a control for general cDNA levels in each sample. Where the medium control values are not detectable, the lowest measurable response was set at 1.00. In other experiments, levels of cytokine cDNA can be compared directly with previously amplified cytokine-specific cDNAs as standards. Thus, absolute levels of particular cytokine cDNAs can be compared from one sample to another and from one experiment to another. In this experiment, IL-2, IL-4 and IFN-gamma levels were measured. […] This analysis will be expanded to studies of other cytokines involved in the generation of allergic responses, such as IL-5, IL-8, IL-9, TGF-beta. Samples of cDNA from each treatment can also be saved for later analysis once additional cytokines are identified and sequenced. […]

[3] = test system: Patient 155 TRFP secondary primed T cells; experiment: Induction of T cell anergy/tolerance in vitro, followed by proliferation assay on antigenic challenge
Description: The T cell cultures were exposed to 5µg/ml TRFP on day 0 and 5µg/ml, 10µg/ml, 10µg/ml and 20µg/ml thereafter. The peptide treated cultures were exposed to 1µg/ml peptide on day 0 and 1µg/ml, 1µg/ml, 2µg/ml and 5µg/ml thereafter. In addition, 0.5ml of fresh media was replaced on day 2. The cells were then washed and set up for a proliferation assay with 2x10^4 T cells and 2x10^4 irradiated (2500 Rad) autologous EBV and various doses of antigen. T cell proliferation was measured as incorporation of tritiated thymidine at day 9. […]

[4] = Chain #2 TRFP peptides, cat allergic patients, average SI of responding patients multiplied by percent positive
[5] = Chain #2 TRFP peptides, cat allergic patients, average of responding patients
[6] = Chain #1 TRFP peptides, average cpm with antigen divided by cpm of T cells and antigen presenting cells alone, responding patients, SI ≥ 2.5 positive
[7] = Chain #1 TRFP peptides, cat allergic patients, average SI of all responding patients multiplied by percent of patients with a positive response

| Substance | PI [1, 4] | SI [1, 5] | STIMULATION INDEX IL-2 [2] | STIMULATION INDEX IFN-γ [2] | STIMULATION INDEX IL-4 [2] | RATIO IFN/IL-4 [2] | RATIO IL-2/IL-4 [2] | SI [1, 6] | PI [1, 7] | T cell stimulatory activity ([1]; result in words) | secondary T cell response of peripheral blood lymphocytes ([1]; patient 131, Figure 9, result in words) | T cell proliferation (cpm) following Antigenic challenge: Fel 8-3 ([3]; label = tolerance treatment over 5 days, challenge with Fel 8-3) | T cell proliferation (cpm) following Antigenic challenge: Ragweed Peptide ([3]; label = tolerance treatment over 5 days, challenge with Ragweed Peptide) | T cell proliferation (cpm) following Antigenic challenge: TRFP ([3]; label = tolerance treatment over 5 days, challenge with TRFP) | T cell proliferation (cpm) following Antigenic challenge: - ([3]; label = tolerance treatment over 5 days, no challenge antigen) | T cell proliferation (cpm) following Antigenic challenge ([3]; no tolerance treatment (-), label = challenge antigen) |
| --- | --- | --- | --- | --- | --- | --- | --- | --- | --- | --- | --- | --- | --- | --- | --- | --- |
| Fel 25: TRFP chain 2 peptide, amino acids 49 - 68 (YVENGLISRVLDGLVMTTIS; UniProt P30440 66-85, looked up, fragment) | 350 | 7.6 | 2.9 | 12.7 | 2.5 | 5.1 | 1.2 |  |  |  |  |  |  |  |  |  |
| Fel 14: TRFP chain 1 peptide, amino acids 18 - 43 (PDEYVEQVAQYKALPVVLENARILKN; UniProt P30438 40-65, looked up, fragment) |  |  | 106.9 | 75.0 | 1.9 | 39.5 | 56.3 | 13.7 | 1054 | powerful activity |  |  |  |  |  |  |
| Fel 8: TRFP chain 1 peptide, amino acids 1 - 30 (EICPAVKRDVDLFLTGTPDEYVEQVAQYKA; UniProt P30438 23-52, looked up, fragment) |  |  | 1.0 | 1.8 | 0.3 | 6.0 | 3.3 | 18.1 | 1393 | most dominant T-cell epitopes | respond |  |  |  |  |  |
| Fel 8-3: TRFP chain 1 peptide, amino acids 7 - 33 (KRDVDLFLTGTPDEYVEQVAQYKALPV; UniProt P30438 29-55, looked up, fragment) |  |  |  |  |  |  |  | 16.9 | 1437 | powerful activity |  | 3,850 cpm | 5,130 cpm | 12,320 cpm | 1,270 cpm | 58,150 cpm |
| Fel 17: TRFP chain 2 peptide, amino acids 12 - 33 (DVFFAVANGNELLLDLSLTKVN; UniProt P30440 29-50, looked up, fragment) | 421 | 6.1 | 315.1 | 82.4 | 7.5 | 11.0 | 42.0 |  |  |  |  |  |  |  |  |  |
| Fel 29: TRFP chain 2 peptide, amino acids 74 - 92 (MGEAVQNTVEDLKLNTLGR; UniProt P30440 91-109, looked up, fragment) | 259 | 5.5 | 1.2 | 3.0 | 1.1 | 2.7 | 1.1 |  |  |  |  |  |  |  |  |  |
| Fel 20-1: TRFP chain 2 peptide, amino acids 34 - 59 (ATEPERTAMKKIQDCYVENGLISRVL; UniProt P30440 51-76, looked up, fragment) | 395 | 5.9 |  | 12.0 | 4.6 | 2.6 |  |  |  |  |  |  |  |  |  |  |
| Fel 28: TRFP chain 2 peptide, amino acids 60 - 82 (DGLVMTTISSSKDCMGEAVQNTV; UniProt P30440 77-99, looked up, fragment) | 94 | 3.6 |  | 3.8 | 0.5 | 7.6 |  |  |  | weakest T cell epitope containing region of TRFP |  |  |  |  |  |  |
